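A five-concentration, 48-hour dose response in 96-well plates underlies each endpoint, interpolated linearly between surrounding concentrations. Here, GI50 denotes the concentration required for 50% inhibition of growth. TGI denotes the concentration required for complete inhibition of growth.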 Where a SMILES comes first, the peptide text is derived from it. The star is where a group is joined. Boc = CC(C)(C)OC(=O)*
Assays:
Experiment in all cases: DTP human tumour cell line panel, 48 h
MDA-MB-435 = system: MDA-MB-435
A549 NSCLC = system: A549 NSCLC
RXF 393 renal = system: RXF 393 renal
KM12 colon = system: KM12 colon
HL-60(TB) leukemia = system: HL-60(TB) leukemia
MDA-MB-231 breast = system: MDA-MB-231 breast
OVCAR-8 ovarian = system: OVCAR-8 ovarian
U251 CNS = system: U251 CNS
HS 578T breast = system: HS 578T breast
MCF7 breast = system: MCF7 breast

Structure (SMILES)	TGI (MDA-MB-435) [µM]	TGI (A549 NSCLC) [µM]	TGI (RXF 393 renal) [µM]	TGI (KM12 colon) [µM]	TGI (HL-60(TB) leukemia) [µM]	TGI (MDA-MB-231 breast) [µM]	TGI (OVCAR-8 ovarian) [µM]	TGI (U251 CNS) [µM]	TGI (HS 578T breast) [µM]	TGI (MCF7 breast) [µM]	GI50 (MDA-MB-435) [µM]	GI50 (RXF 393 renal) [µM]	GI50 (KM12 colon) [µM]	GI50 (HL-60(TB) leukemia) [µM]	GI50 (MDA-MB-231 breast) [µM]	GI50 (HS 578T breast) [µM]
CC(C)(C)OC(=O)NCC(=O)NCC(=O)NCC(=O)NCC(=O)O (Boc-GGGG-OH)	> 100	> 100	> 100	> 100	> 100	> 100	> 100	> 100	> 100	> 100	–	–	–	–	–	–
CC(=O)O[C@]12CCCCCC1C1(O)C(O)CCC[C@H]12 (some centres undefined)	–	> 100	> 100	> 100	> 100	–	> 100	> 100	–	–	–	–	–	–	–	–
COc1ccc2cc3c4cc5c(cc4cc[n+]3cc2c1OC)OCO5	22.9	> 100	> 69.6	12.2	> 65.5	> 100	> 94.8	15.3	31.3	> 96.2	–	–	–	–	–	–
C=CC[C@]12C[C@@H](C(=O)OC)N(C(=O)OC)[C@H]1N(S(=O)(=O)c1ccccc1)c1ccccc12	> 100	> 100	66.9	> 100	> 100	> 100	> 100	> 100	> 100	> 100	–	–	–	–	–	–
CC(=O)N/N=C1\NC(=O)C[C@H]2[C@@H]3CC=C4C[C@@H](OC(C)=O)CC[C@]4(C)[C@H]3CC[C@]12C	> 100	> 100	–	> 100	> 100	39.3	> 100	28.7	88.6	> 100	–	–	–	–	–	–
O=C(NC(Cc1ccc(I)cc1)C(=O)O)c1ccc(I)cc1 (centres undefined)	–	> 100	> 100	> 100	> 100	–	> 100	> 100	–	> 100	–	–	–	–	–	–
CC(C)/C(Cl)=N\OC(=O)Nc1ccc(C#N)cc1	20.8	39.9	8.01	29.9	> 22.7	28.1	31	31.9	39.8	22.4	–	–	–	–	–	–
CSc1c(C#N)c(N)n2c1C(=O)N(c1ccccc1)C2=S	> 100	> 100	> 100	> 100	> 100	45.6	> 100	> 100	80.7	> 100	–	–	–	–	–	–
CCN(CC)CCOc1ccc(N2C(=O)c3cc(OC)c(OC)cc3C2=O)cc1	> 100	> 100	> 100	> 100	> 100	> 100	> 100	> 100	> 100	> 100	–	–	–	–	–	–
N#CC(C#N)=CNC(=S)c1ccncc1	> 100	> 100	> 100	> 100	> 100	> 100	> 100	> 100	> 100	> 100	–	–	–	–	–	–
CC1(C)N=C(C(N)=O)c2ncn(CCCO)c2N1	> 100	> 100	> 100	> 100	> 100	> 100	> 100	> 100	> 100	> 100	–	–	–	–	–	–
CCOC(=O)/C=C(\C)c1ccc(C)cc1C	–	> 100	27.7	> 100	11.9	–	> 100	> 100	–	–	–	–	–	–	–	–
O=c1c2ccccc2nc2[nH][nH]c(=S)n12	> 100	> 100	–	> 100	> 100	> 100	> 100	> 100	> 100	> 100	–	–	–	–	–	–
CCCCC1c2c([nH]c3ccccc23)C2C(=O)N(c3ccc(OC)cc3)C(=O)C2C1CCC (centres undefined)	4.29	> 10	> 10	5.65	5.45	> 10	8.24	> 10	4.81	–	–	–	–	–	–	–
Cc1cc(=O)c2c([nH]1)NS(=O)(=O)NC2=O	–	> 100	–	> 100	> 100	–	> 100	–	–	–	–	–	–	–	–	–
O=C1C=CC(=O)N1Nc1ccc([N+](=O)[O-])cc1[N+](=O)[O-]	–	> 100	–	> 100	> 51.5	–	> 100	> 100	–	–	–	–	–	–	–	–
Cc1c2c(n(CCc3ccc(Cl)cc3)c1C)NN=C(C#N)S2(=O)=O	> 100	> 100	–	> 100	–	> 100	–	> 100	> 100	> 100	–	–	–	–	–	–
O=C(CCCN1CCC2(CC1)CC(=O)N(N1CCOCC1)C2=O)c1ccccc1	35.4	> 100	> 100	> 100	> 100	> 100	> 100	> 100	–	> 100	–	–	–	–	–	–
COc1ccc2cc(-c3ccc(-c4ccc(C(=N)N)s4)s3)ccc2c1	4.48	–	23.2	4.68	5.34	5.42	–	–	50	–	2.01	7.22	2.06	1.84	2.46	16.6
O=c1ccc2cc3ccc4cccc5ccc(c2o1)c3c45	–	–	–	–	> 100	–	> 100	31.1	–	–	–	–	–	–	–	–
BrC/C=C/C[P+](c1ccccc1)(c1ccccc1)c1ccccc1	–	> 100	–	14.7	39.2	–	> 100	87	–	–	–	–	–	–	–	–
COc1ccc2nc3cc(Cl)ccc3c(NCCCNCCCNc3c4ccc(Cl)cc4nc4ccc(OC)cc34)c2c1	–	0.165	0.453	–	23.2	0.0555	–	0.13	–	0.157	–	–	–	–	–	–
CCOC(=N)n1c(=O)n(C2=NCCN2)c2ccccc21	> 100	> 100	> 100	> 100	> 100	> 100	> 100	> 100	–	> 100	–	–	–	–	–	–
C/C(CC1C2CCCC1C2)=N\NC(N)=O (centres undefined)	> 100	> 100	–	> 100	> 100	> 100	> 100	> 100	> 100	> 100	–	–	–	–	–	–
CN(C)C(=S)S	> 100	> 100	> 100	> 100	–	> 100	> 100	> 100	> 100	> 100	–	–	–	–	–	–

— PubChem BioAssay (NCI)
